Laboratory results from ChEMBL document CHEMBL5724914, “Linking interpersonal differences in gut microbiota composition and drug biotransformation activity” (2024).

Columns and labels:
[1] = The drug is tested on WLS-220 corresponding to human gut metagenome with ENA study accession number: PRJEB37062 and ENA sample accession number: ERS12561769 for biotransformation under anaerobic condition. The drug concentrations were measured over 9 timepoints collected between 0 and 24 hours of incubation by liquid-chromatography-coupled mass spectrometry (LC–MS); conditions: 2 µM
[2] = human gut metagenome, 24 h, 2 µM
[3] = The drug is tested on WLS-073 corresponding to human gut metagenome with ENA study accession number: PRJEB37062 and ENA sample accession number: ERS12561749 for biotransformation under anaerobic condition. The drug concentrations were measured over 9 timepoints collected between 0 and 24 hours of incubation by liquid-chromatography-coupled mass spectrometry (LC–MS); conditions: 2 µM
[4] = human gut metagenome, 24 h, 2 µM; remark: listed apart in the source
[5] = human gut metagenome, 24 h, 2 µM; remark: listed apart in the source
[6] = human gut metagenome, 24 h, 2 µM; remark: listed apart in the source
[7] = The drug is tested on Z-024 corresponding to pig gut metagenome with ENA study accession number: PRJEB37062 and ENA sample accession number: ERS12561823 for biotransformation under anaerobic condition. The drug concentrations were measured over 9 timepoints collected between 0 and 24 hours of incubation by liquid-chromatography-coupled mass spectrometry (LC–MS); conditions: 2 µM
[8] = human gut metagenome, 24 h, 2 µM; remark: listed apart in the source
[9] = human gut metagenome, 24 h, 2 µM; remark: listed apart in the source
[10] = human gut metagenome, 24 h, 2 µM; remark: listed apart in the source
[11] = The drug is tested on WLS-010 corresponding to human gut metagenome with ENA study accession number: PRJEB37062 and ENA sample accession number: ERS12561743 for biotransformation under anaerobic condition. The drug concentrations were measured over 9 timepoints collected between 0 and 24 hours of incubation by liquid-chromatography-coupled mass spectrometry (LC–MS); conditions: 2 µM
[12] = The drug is tested on WLS-350 corresponding to human gut metagenome with ENA study accession number: PRJEB37062 and ENA sample accession number: ERS12561789 for biotransformation under anaerobic condition. The drug concentrations were measured over 9 timepoints collected between 0 and 24 hours of incubation by liquid-chromatography-coupled mass spectrometry (LC–MS); conditions: 2 µM
[13] = The drug is tested on WLS-038 corresponding to human gut metagenome with ENA study accession number: PRJEB37062 and ENA sample accession number: ERS12561745 for biotransformation under anaerobic condition. The drug concentrations were measured over 9 timepoints collected between 0 and 24 hours of incubation by liquid-chromatography-coupled mass spectrometry (LC–MS); conditions: 2 µM
[14] = The drug is tested on WLS-170 corresponding to human gut metagenome with ENA study accession number: PRJEB37062 and ENA sample accession number: ERS12561762 for biotransformation under anaerobic condition. The drug concentrations were measured over 9 timepoints collected between 0 and 24 hours of incubation by liquid-chromatography-coupled mass spectrometry (LC–MS); conditions: 2 µM
[15] = The drug is tested on WLS-027 corresponding to human gut metagenome with ENA study accession number: PRJEB37062 and ENA sample accession number: ERS12561744 for biotransformation under anaerobic condition. The drug concentrations were measured over 9 timepoints collected between 0 and 24 hours of incubation by liquid-chromatography-coupled mass spectrometry (LC–MS); conditions: 2 µM
[16] = human gut metagenome, 24 h, 2 µM; remark: listed apart in the source
[17] = human gut metagenome, 24 h, 2 µM; remark: listed apart in the source
[18] = The drug is tested on Z-021 corresponding to metagenome with ENA study accession number: PRJEB37062 and ENA sample accession number: ERS12561820 for biotransformation under anaerobic condition. The drug concentrations were measured over 9 timepoints collected between 0 and 24 hours of incubation by liquid-chromatography-coupled mass spectrometry (LC–MS); conditions: 2 µM
[19] = The drug is tested on Z-016 corresponding to mouse gut metagenome with ENA study accession number: PRJEB37062 and ENA sample accession number: ERS12561815 for biotransformation under anaerobic condition. The drug concentrations were measured over 9 timepoints collected between 0 and 24 hours of incubation by liquid-chromatography-coupled mass spectrometry (LC–MS); conditions: 2 µM
[20] = The drug is tested on Z-006 corresponding to mouse gut metagenome with ENA study accession number: PRJEB37062 and ENA sample accession number: ERS12561806 for biotransformation under anaerobic condition. The drug concentrations were measured over 9 timepoints collected between 0 and 24 hours of incubation by liquid-chromatography-coupled mass spectrometry (LC–MS); conditions: 2 µM
Note: call rule not given here.

| Structure (SMILES) | Bacterial Biotransformation [1] | Bacterial Biotransformation [2] | Bacterial Biotransformation [3] | Bacterial Biotransformation [4] | Bacterial Biotransformation [5] | Bacterial Biotransformation [6] | Bacterial Biotransformation [7] | Bacterial Biotransformation [8] | Bacterial Biotransformation [9] | Bacterial Biotransformation [10] | Bacterial Biotransformation [11] | Bacterial Biotransformation [12] | Bacterial Biotransformation [13] | Bacterial Biotransformation [14] | Bacterial Biotransformation [15] | Bacterial Biotransformation [16] | Bacterial Biotransformation [17] | Bacterial Biotransformation [18] | Bacterial Biotransformation [19] | Bacterial Biotransformation [20] |
| --- | --- | --- | --- | --- | --- | --- | --- | --- | --- | --- | --- | --- | --- | --- | --- | --- | --- | --- | --- | --- |
| COC(=O)[C@H](c1ccccc1Cl)N1CCc2sccc2C1.O=S(=O)(O)O [CLOPIDOGREL BISULFATE] | Compound metabolized | Compound metabolized | Compound metabolized | Compound metabolized | Compound metabolized | Compound metabolized | Compound metabolized | Compound metabolized | Compound metabolized | Compound metabolized | Compound metabolized | Compound metabolized | Compound metabolized | Compound metabolized | Compound NOT metabolized | Compound metabolized | Compound metabolized | Compound metabolized | Compound metabolized | Compound metabolized |
| COc1ccccc1OCCNCC(O)COc1cccc2[nH]c3ccccc3c12 (stereo not given) [CARVEDILOL] | Compound metabolized | Compound metabolized | Compound metabolized | Compound metabolized | Compound NOT metabolized | Compound metabolized | Compound metabolized | Compound metabolized | Compound metabolized | Compound metabolized | Compound metabolized | Compound metabolized | Compound metabolized | Compound metabolized | Compound metabolized | Compound metabolized | Compound NOT metabolized | Compound NOT metabolized | Compound NOT metabolized | Compound NOT metabolized |
| CC1Cc2ccccc2N1NC(=O)c1ccc(Cl)c(S(N)(=O)=O)c1 (stereo not given) [INDAPAMIDE] | Compound NOT metabolized | Compound NOT metabolized | Compound NOT metabolized | Compound NOT metabolized | Compound NOT metabolized | Compound NOT metabolized | Compound NOT metabolized | Compound NOT metabolized | Compound NOT metabolized | Compound NOT metabolized | Compound NOT metabolized | Compound NOT metabolized | Compound NOT metabolized | Compound NOT metabolized | Compound NOT metabolized | Compound NOT metabolized | Compound NOT metabolized | Compound NOT metabolized | Compound NOT metabolized | Compound NOT metabolized |
